Data reported in US11345682B2, “Polymorph of HDAC6-selective inhibitor and application thereof” (CSTONE PHARMACEUTICALS (SUZHOU) CO., LTD., priority 2018, dated 2022).

Key:
[1] = Solid stability test of the polymorph A (XRPD); format: physicochemical
Method: According to the “Guidelines for the Stability Test of Active Pharmaceutical Ingredients and Preparations” (Chinese Pharmacopoeia, 2015, Part IV, General Chapter 9001), the stability of the polymorph A of the compound of formula (I) was investigated under the conditions of high temperature (60° C., open), high humidity (room temperature/relative humidity of 92.5%, open), high temperature and high humidity (40° C., 75% RH; 60° C., 75% RH) and strong light (total illumination of 1.2×10^6 Lux·hr/near ultraviolet 200 w·hr/m^2, sealed).
15 mg of the polymorph A of the compound of formula (I) was weighed, placed on the bottom of a glass sample bottle, and spread into a thin layer. The sample placed under high temperature and high humidity was sealed with aluminum foil paper, and some small holes were pierced in the aluminum foil paper to ensure that the sample can fully contact with the ambient air; The samples placed under strong light conditions were sealed with screw caps. The samples placed under different conditions were sampled and tested (XRPD) on day 5 and day 10. The test results were compared with the initial test results on day 0.

[2] = system: human multiple myeloma cells MM.1S xenograft (CDX); assay: In vivo pharmacodynamic study in MM.1S xenograft (CDX) model
Method: CB-17 SCID mice, female, 6 weeks to 8 weeks old, weight of about 17 grams to 20 grams. The mice were kept in a special pathogen-free environment and in a single ventilated cage (4 mice per cage). All cages, bedding and water were disinfected before use. All animals had free access to standard certified commercial laboratory food. A total of 64 mice purchased from Beijing Vital River Co., Ltd. were used for study. 0.2 mL of 5×10^6 MM.1S cells were subcutaneously inoculated on the right back of each mouse for tumor growth. The experiment was performed when the average tumor volume reached about 100 cubic millimeters to 150 cubic millimeters.
In vivo selective experiments were performed on CB-17 SCID mice implanted subcutaneously with human multiple myeloma cells MM.1S xenograft (CDX). The polymorph A of the compound of formula (I) was formulated with a mixed solution of 5% of dimethyl sulfoxide and 95% of 10% hydroxypropyl-β-cyclodextrin into a formulation to be administered orally for 5 days and stopped for 2 days. Ixazomib was administered once on the first day and fourth day of each week, respectively. The tumor volume was measured with a two-dimensional caliper twice a week, and the volume was measured in cubic millimeters and calculated by the following formula: V=0.5 a*b^2, in which a and b were the long diameter and short diameter of the tumor, respectively. The anti-tumor efficacy was determined by dividing the average tumor increase volume of animals treated with the compound by the average tumor increase volume of untreated animals.

[3] = Solid stability test of the polymorph A (XRPD); format: physicochemical; conditions: High temperature and high humidity (40° C., 75% RH; 60° C., 75% RH), 1 month

## O=C(NO)c1ccc(CNC(=O)c2ccc(C3(c4ccc(F)cc4)CCCO3)cn2)cc1 (centres unmarked)
[1]; Day 0, initial (XRPD)
  Polymorph: Polymorph A
[1]; High humidity (room temperature/relative humidity of 92.5%, open), Day 5
  Polymorph: Polymorph A
[1]; High humidity (room temperature/relative humidity of 92.5%, open), Day 10
  Polymorph: Polymorph A
[1]; High temperature (60° C., open), Day 5
  Polymorph: Polymorph A
[1]; High temperature (60° C., open), Day 10
  Polymorph: Polymorph A
[1]; High temperature and high humidity (40° C., 75% RH; 60° C., 75% RH), Day 10
  Polymorph: Polymorph A
[1]; Strong light (5000 lx, sealed), Day 5
  Polymorph: Polymorph A
[1]; Strong light (5000 lx, sealed), Day 10
  Polymorph: Polymorph A
[1]; high temperature, high humidity, high temperature and high humidity, and strong light
  Solid stability (conclusion): good stability
[1]; light, heat and humidity, technical effects statement
  Stability (general statement): stable, less affected by light, heat and humidity
[2]; 75 mg/kg oral, administration for 5 days and drug withdrawal for 2 days, Day 0
  Tumor volume: 134 mm^3
[2]; 75 mg/kg oral, administration for 5 days and drug withdrawal for 2 days, Day 3
  Tumor volume: 165 mm^3
[2]; 75 mg/kg oral, administration for 5 days and drug withdrawal for 2 days, Day 5
  Tumor volume: 319 mm^3
[2]; 75 mg/kg oral, administration for 5 days and drug withdrawal for 2 days, Day 7
  Tumor volume: 466 mm^3
[2]; 75 mg/kg oral, administration for 5 days and drug withdrawal for 2 days, Day 10
  Tumor volume: 753 mm^3
[2]; 75 mg/kg oral, administration for 5 days and drug withdrawal for 2 days, Day 12
  Tumor volume: 1006 mm^3
[2]; 75 mg/kg oral, administration for 5 days and drug withdrawal for 2 days, Day 14
  Tumor volume: 1532 mm^3
[2]; technical effects statement
  Efficacy in vivo (general statement): good efficacy in vivo
[3]
  Polymorph: Polymorph A

## CC(C)C[C@H](NC(=O)CNC(=O)c1cc(Cl)ccc1Cl)B(O)O [Ixazomib, reference compound]
[2]; Ixazomib 4 mg/kg, twice a week, Day 0
  Tumor volume: 134 mm^3
[2]; Ixazomib 4 mg/kg, twice a week, Day 3
  Tumor volume: 157 mm^3
[2]; Ixazomib 4 mg/kg, twice a week, Day 5
  Tumor volume: 193 mm^3
[2]; Ixazomib 4 mg/kg, twice a week, Day 7
  Tumor volume: 331 mm^3
[2]; Ixazomib 4 mg/kg, twice a week, Day 10
  Tumor volume: 634 mm^3
[2]; Ixazomib 4 mg/kg, twice a week, Day 12
  Tumor volume: 835 mm^3
[2]; Ixazomib 4 mg/kg, twice a week, Day 14
  Tumor volume: 1257 mm^3
